Columns and labels:
G-402 = experiment: OncoPanel cytotoxicity assay; type: cell-based; settings: Homo sapiens, 72 hour incubation
Outline: (§1)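 Cells grown in RPMI 1640 with 10% FBS (or a special medium) at 37° C, 5% CO2 were treated 24 hours after seeding for 72 hours with 10 concentrations (3.16-fold dilutions, 0.1% DMSO final). Nuclei were dye-stained and imaged; IC50 was fit from percent of control relative cell count.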

SW900 = experiment: OncoPanel cytotoxicity assay; type: cell-based; settings: Homo sapiens, 72 hour incubation
Outline: as §1

CTG-0069 Colorectal = experiment: Champions TumorGraft model, tumor growth inhibition; type: in vivo, mice; settings: 100 mg/kg/dose p.o./qd × 10, TGI evaluation Day 11
Description: (§2) Patient-derived xenograft models (Champions TumorGraftTM; Champions Oncology, Inc., Hackensack, N.J.) were used. Champions TumorGraftsTM provide a highly focused, accelerated translational platform, which is based upon the implantation of primary human tumors in immune-deficient mice followed by propagation of the resulting low-passage Champions TumorGraftsTM in a manner that preserves the biological characteristics of the original human tumor. […] The TumorGraftsTM models allow a comparison of gene expression analysis of patients' cancer samples and Champions TumorGraftTM samples by microarray expression analysis. Large numbers (e.g., 30,000) of genes are analyzed. […] Female immunocompromised nu/nu mice (Harlan) between 6-9 weeks of age were housed on irradiated […]-enriched 1⁄8'' corncob bedding ([…]) in individual HEPA ventilated cages (Innocage® IVC, Innovive USA) and were kept on a 12-hour light-dark cycle at 68-74° F. (20-23° C.) and 30-70% humidity. Animals were fed water ad libitum (reverse osmosis, 2 ppm C12) and an irradiated Test rodent diet (Teklad 2919) consisting of 19% protein, 9% fat, and 4% fiber. Animals were implanted bilaterally in the flank region with tumor fragments harvested from tumored host animals, each implanted from a specific passage lot. Pre-study tumor volumes were recorded for each experiment beginning approximately one week prior to its estimated start date. When tumors reached approximately 125-250 mm^3, animals were matched by tumor volume into treatment and control groups, and dosing was initiated (Day 0). Animals in all studies were tagged and followed individually throughout the experiment. Initial dosing for standard agents began on Day 0; animals in all groups were dosed by weight (0.01 ml per gram; 10 ml/kg). Dose concentration(s), route(s) of administration and schedule(s) for each group are listed in the Experimental Design section, wherein “p.o./qd×10” indicates orally (by mouth) daily for 10 days. The experimental design of the human tumor graft model study is presented below in Table 4. “n” indicates the number of animals per group; “ROA” indicates route of administration of the test agent, i.e., the MDM2i drug. Beginning on Day 0, tumor dimensions were measured twice weekly by digital caliper and data including individual and mean estimated tumor volumes (Mean TV±SEM) were recorded for each group. Tumor volume was calculated using the formula (1): TV=width^2×length×0.52. At study completion, percent tumor growth inhibition (% TGI) values were calculated and reported for each treatment group (T) versus control (C) using initial (i) and final (f) tumor measurements and the formula (2): % TGI=1-Tf-Ti/Cf-C. The tumor growth inhibition (TGI) values on the scheduled dates closest to the last administration are summarized Table 5 below. In this example, the study duration was defined by the tumor size of the vehicle control. In some cases, for example, that of CTG-0213 in Table 5, required a longer time period for the tumor to reach a threshold size. As a result, the test animals treated with the MDM2i Compound B were also left for a longer time period, e.g., 40 days in the case of CTG-0213, without MDM2i treatment. […] Thus, the evaluation of TGI was set to be near the end of the treatment period, such as around Day 7-11 (around Day 9).

CTG-0093 Colorectal = experiment: as above; type: in vivo, mice; settings: 100 mg/kg/dose p.o./qd × 10, TGI evaluation Day 9
Description: as §2

CTG-0159 NSCLC = experiment: as above; type: in vivo, mice; settings: 100 mg/kg/dose p.o./qd × 10, TGI evaluation Day 11
Description: as §2

CTG-0201 Melanoma = experiment: as above; type: in vivo, mice; settings: 100 mg/kg/dose p.o./qd × 10, TGI evaluation Day 10
Description: as §2

CTG-0203 Melanoma = experiment: as above; type: in vivo, mice; settings: 100 mg/kg/dose p.o./qd × 10, TGI evaluation Day 11
Description: as §2

CTG-0204 Melanoma = experiment: as above; type: in vivo, mice; settings: 100 mg/kg/dose p.o./qd × 10, TGI evaluation Day 10
Description: as §2

CTG-0213 Melanoma = experiment: as above; type: in vivo, mice; settings: 100 mg/kg/dose p.o./qd × 10, TGI evaluation Day 7
Description: as §2

CTG-0282 Pancreatic = experiment: as above; type: in vivo, mice; settings: 100 mg/kg/dose p.o./qd × 10, TGI evaluation Day 11
Description: as §2

CTG-0292 Pancreatic = experiment: as above; type: in vivo, mice; settings: 100 mg/kg/dose p.o./qd × 10, TGI evaluation Day 11
Description: as §2

CTG-0500 Melanoma = experiment: as above; type: in vivo, mice; settings: 100 mg/kg/dose p.o./qd × 10, TGI evaluation Day 7
Description: as §2

CTG-0501 Melanoma = experiment: as above; type: in vivo, mice; settings: 100 mg/kg/dose p.o./qd × 10, TGI evaluation Day 11
Description: as §2

CTG-0502 NSCLC = experiment: as above; type: in vivo, mice; settings: 100 mg/kg/dose p.o./qd × 10, TGI evaluation Day 10
Description: as §2

Row | SMILES | IC50 (G-402) [nM] | IC50 (SW900) [nM] | % TGI (CTG-0069 Colorectal) [%] | % TGI (CTG-0093 Colorectal) [%] | % TGI (CTG-0159 NSCLC) [%] | % TGI (CTG-0201 Melanoma) [%] | % TGI (CTG-0203 Melanoma) [%] | % TGI (CTG-0204 Melanoma) [%] | % TGI (CTG-0213 Melanoma) [%] | % TGI (CTG-0282 Pancreatic) [%] | % TGI (CTG-0292 Pancreatic) [%] | % TGI (CTG-0500 Melanoma) [%] | % TGI (CTG-0501 Melanoma) [%] | % TGI (CTG-0502 NSCLC) [%]
1 | CC[C@@H]1CNC2(CC2)CN1C(=O)[C@@H]1C[C@@H](F)CN1C(=O)C1=C(C(C)C)N2C(=N[C@@](C)(c3ccc(Cl)nc3)[C@H]2c2ccc(Cl)c(F)c2)S1 [Compound A, [(5R,6S)-5-(4-Chloro-3-fluorophenyl)-6-(6-chloropyridin-3-yl)-6-methyl-3-(propan-2-yl)-5,6-dihydroimidazo[2,1-b][1,3]thiazol-2-yl][(2S,4R)-2-{[(6R)-6-ethyl-4,7-diazaspiro[2.5]oct-7-yl]carbonyl}-4-fluoropyrrolidin-1-yl]methanone] | 568 | > 40000 | – | – | – | – | – | – | – | – | – | – | – | –
2 | CC1(C)CCC2(CC1)N[C@@H](C(=O)N[C@@H]1CC[C@@H](C(N)=O)OC1)[C@H](c1ccnc(Cl)c1F)[C@]21C(=O)Nc2cc(Cl)ccc21 [Compound B, (3′R,4′S,5′R)—N-[(3R,6S)-6-carbamoyltetrahydro-2H-pyran-3-yl]-6″-chloro-4′-(2-chloro-3-fluoropyridin-4-yl)-4,4-dimethyl-2″-oxo-1″,2″-dihydrodispiro[cyclohexane-1,2′-pyrrolidine-3′,3″-indole]-5′-carboxamide] | 26.1 | > 10000 | 19 | 53 | −13 | −10 | 98 | 51 | 87 | −30 | 54 | 104 | 101 | 122

Reference: patent publication US20160333419A1, “GENE SIGNATURES ASSOCIATED WITH SENSITIVITY TO MDM2 INHIBITORS” (DAIICHI SANKYO COMPANY, LIMITED, priority 2014, published 2016)
